Tests used:
[1] = biological target: T1, Tyrosinase (Agaricus bisporus, UniProt O42713)
T1 sequence (O42713 whole entry): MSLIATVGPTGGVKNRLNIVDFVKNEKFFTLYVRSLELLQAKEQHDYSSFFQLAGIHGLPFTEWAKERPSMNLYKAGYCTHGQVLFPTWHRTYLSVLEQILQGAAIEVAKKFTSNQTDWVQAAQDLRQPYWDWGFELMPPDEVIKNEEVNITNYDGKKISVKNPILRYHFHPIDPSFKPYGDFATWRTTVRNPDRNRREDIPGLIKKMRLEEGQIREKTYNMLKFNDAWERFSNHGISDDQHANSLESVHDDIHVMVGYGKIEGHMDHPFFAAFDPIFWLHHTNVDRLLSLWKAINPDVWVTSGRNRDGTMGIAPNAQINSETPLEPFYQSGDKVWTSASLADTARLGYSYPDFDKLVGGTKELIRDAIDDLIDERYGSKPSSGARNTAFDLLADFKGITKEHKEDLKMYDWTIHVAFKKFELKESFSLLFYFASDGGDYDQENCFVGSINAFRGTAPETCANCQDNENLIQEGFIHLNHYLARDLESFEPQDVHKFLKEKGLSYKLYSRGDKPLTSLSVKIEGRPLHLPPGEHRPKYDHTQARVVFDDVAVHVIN
Description: Inhibition of mushroom tyrosinase using L-tyrosine as substrate after 20 mins by spectrophotometric method

[2] = biological target: T2, Tyrosinase (Agaricus bisporus) (UniProt O42713); experiment: Ratio of kojic acid IC50 to compound IC50 for mushroom tyrosinase
T2 sequence (whole entry): T1 sequence (O42713 whole entry)

| Compound | IC50 [1] [nM] | Ratio IC50 [2] |
| --- | --- | --- |
| CC(=O)c1c(O)ccc(C(c2ccc(O)cc2O)c2ccc(O)c(C(C)=O)c2O)c1O | 16200 |  |
| CC(=O)c1c(O)cccc1O | > 300000 |  |
| O=Cc1ccc(O)cc1O | > 200000 |  |
| CC(=O)c1ccccc1O | > 300000 |  |

The next lines start with the values.

| IC50 [1] [nM] | Ratio IC50 [2] | Compound |
| --- | --- | --- |
| 970 | 30 | O=C1CC(c2ccc(O)cc2O)Oc2ccccc21 (stereo unspecified) |
| 1960 |  | O=C1CC(c2ccc(O)cc2O)Oc2cccc(O)c21 (stereo unspecified) |
| 29 | 30 | O=C(/C=C/c1ccc(O)cc1O)c1ccccc1O |
| 2720 |  | O=c1cc(-c2ccc(O)cc2O)oc2cccc(O)c12 |
| 1670 |  | O=C(CC(CC(=O)c1ccccc1O)c1ccc(O)cc1O)c1ccccc1O |

Source: ChEMBL document CHEMBL3751727, “One-pot green synthesis of 1,3,5-triarylpentane-1,5-dione and triarylmethane derivatives as a new class of tyrosinase inhibitors” (Bioorg Med Chem Lett, 2016)
